Laboratory results as given in patent publication US9149038B2, “4-amino-6-(heterocyclic)picolinates and 6-amino-2-(heterocyclic)pyrimidine-4-carboxylates and their use as herbicides” (Dow AgroSciences LLC, priority 2013, dated 2015).
Like-named read-outs stand apart in the source and are kept apart here.

System: Wheat and Barley and weed species
Experiment: Post-Emergent Test III: postemergent herbicidal activity in wheat and barley, visual rating after 21 d and probit GR20/GR50/GR80/GR90 (Tables 9-13)
Assay type: in vivo
Settings: for GR20 HORVS / GR20 TRZAS: growth reduction of 20%; for pest or weed control at 35 g/ha / pest or weed control at 70 g/ha / pest or weed control at 140 g/ha / pest or weed control at 17.5 g/ha: post-emergence, 504 h
Procedure, shortened: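 Greenhouse plants (~18/17 °C, 14 h photoperiod) at second–third true leaf stage sprayed at 187 L/ha with a high rate and ½× to 1/16× serial dilutions. Visual injury 0–100% versus solvent-blank controls scored at 21 d; GR20, GR50, GR80 and GR90 derived by probit analysis across rates.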

[1] = ALOMY black-grass (Alopecurus myosuroides), growth reduction of 50%, probit analysis
[2] = ALOMY black-grass (Alopecurus myosuroides), growth reduction of 80%, probit analysis
[3] = ALOMY black-grass (Alopecurus myosuroides), growth reduction of 90%, probit analysis
[4] = APESV bentgrass (Apera spica-venti), growth reduction of 50%, probit analysis
[5] = APESV bentgrass (Apera spica-venti), growth reduction of 80%, probit analysis
[6] = APESV bentgrass (Apera spica-venti), growth reduction of 90%, probit analysis
[7] = HORVS barley, spring (crop), probit analysis
[8] = Hordeum vulgare, HORVS barley, spring (crop), 35 g ai/ha, read-out: Visual Growth Reduction (%) 21 Days After Application HORVS
[9] = Hordeum vulgare, HORVS barley, spring (crop), 70 g ai/ha, read-out: Visual Growth Reduction (%) 21 Days After Application HORVS
[10] = LOLSS ryegrass, growth reduction of 50%, probit analysis
[11] = LOLSS ryegrass, growth reduction of 80%, probit analysis
[12] = LOLSS ryegrass, growth reduction of 90%, probit analysis
[13] = SETVI green foxtail (Setaria viridis), growth reduction of 50%, probit analysis
[14] = SETVI green foxtail (Setaria viridis), growth reduction of 80%, probit analysis
[15] = SETVI green foxtail (Setaria viridis), growth reduction of 90%, probit analysis
[16] = TRZAS wheat, spring (crop), probit analysis
[17] = Triticum aestivum, TRZAS wheat, spring (crop), 35 g ai/ha, read-out: Visual Growth Reduction (%) 21 Days After Application TRZAS
[18] = Triticum aestivum, TRZAS wheat, spring (crop), 70 g ai/ha, read-out: Visual Growth Reduction (%) 21 Days After Application TRZAS
[19] = ALOMY black-grass (Alopecurus myosuroides), 35 g ai/ha, read-out: Visual Growth Reduction (%) 21 Days After Application ALOMY
[20] = ALOMY black-grass (Alopecurus myosuroides), 70 g ai/ha, read-out: Visual Growth Reduction (%) 21 Days After Application ALOMY
[21] = APESV bentgrass (Apera spica-venti), 35 g ai/ha, read-out: Visual Growth Reduction (%) 21 Days After Application APESV
[22] = APESV bentgrass (Apera spica-venti), 70 g ai/ha, read-out: Visual Growth Reduction (%) 21 Days After Application APESV
[23] = LOLSS ryegrass, 35 g ai/ha, read-out: Visual Growth Reduction (%) 21 Days After Application LOLSS
[24] = LOLSS ryegrass, 70 g ai/ha, read-out: Visual Growth Reduction (%) 21 Days After Application LOLSS
[25] = SETVI green foxtail (Setaria viridis), 35 g ai/ha, read-out: Visual Growth Reduction (%) 21 Days After Application SETVI
[26] = SETVI green foxtail (Setaria viridis), 70 g ai/ha, read-out: Visual Growth Reduction (%) 21 Days After Application SETVI

For `COC(=O)c1nc(-c2ccc3c(c2F)OC(F)(F)O3)c(F)c(N)c1Cl` [Compound 10], the “GR50 ALOMY” value [1] was 52 g ai/ha, the “GR80 ALOMY” value [2] was 109 g ai/ha and the “GR90 ALOMY” value [3] was >140 g ai/ha. For the same compound, the “GR50 APESV” value [4] was 65 g ai/ha, the “GR80 APESV” value [5] was 106 g ai/ha and the “GR90 APESV” value [6] was 138 g ai/ha. The “GR20 HORVS” value [7] was 11 g ai/ha, the pest or weed control at 35 g/ha [8] was 60 to 74% and the pest or weed control at 70 g/ha [9] was 75 to 84%. The pest or weed control at 140 g/ha (Hordeum vulgare, HORVS barley, spring (crop), 140 g ai/ha, read-out: Visual Growth Reduction (%) 21 Days After Application HORVS) was 85 to 94%, the “Visual Growth Reduction (%) 21 Days After Application KCHSC” value (KCHSC kochia (Kochia scoparia), 35 g ai/ha) was “G (0-29)” and the “Visual Growth Reduction (%) 21 Days After Application KCHSC” value (KCHSC kochia (Kochia scoparia), 70 g ai/ha) was “D (60-74)”. The “Visual Growth Reduction (%) 21 Days After Application KCHSC” value (KCHSC kochia (Kochia scoparia), 140 g ai/ha) was “C (75-84)”, the “GR50 KCHSC” value (KCHSC kochia (Kochia scoparia), growth reduction of 50%, probit analysis) was 78 g ai/ha and the “GR80 KCHSC” value (KCHSC kochia (Kochia scoparia), growth reduction of 80%, probit analysis) was 117 g ai/ha. For the same compound, the “GR90 KCHSC” value (KCHSC kochia (Kochia scoparia), growth reduction of 90%, probit analysis) was >140 g ai/ha, the “GR50 LOLSS” value [10] was 93 g ai/ha and the “GR80 LOLSS” value [11] was >140 g ai/ha. For the same compound, the “GR90 LOLSS” value [12] was >140 g ai/ha, the “GR50 SETVI” value [13] was 36 g ai/ha and the “GR80 SETVI” value [14] was 63 g ai/ha. The “GR90 SETVI” value [15] was 85 g ai/ha, the “GR20 TRZAS” value [16] was 4 g ai/ha and the pest or weed control at 35 g/ha [17] was 60 to 74%. The pest or weed control at 70 g/ha [18] was 85 to 94%, the pest or weed control at 140 g/ha (Triticum aestivum, TRZAS wheat, spring (crop), 140 g ai/ha, read-out: Visual Growth Reduction (%) 21 Days After Application TRZAS) was 85 to 94% and the pest or weed control at 35 g/ha [19] was 30 to 44%. The pest or weed control at 70 g/ha [20] was 45 to 59%, the pest or weed control at 140 g/ha (ALOMY black-grass (Alopecurus myosuroides), 140 g ai/ha, read-out: Visual Growth Reduction (%) 21 Days After Application ALOMY) was 85 to 94% and the pest or weed control at 35 g/ha [21] was 0 to 29%. For the same compound, the pest or weed control at 70 g/ha [22] was 45 to 59%, the pest or weed control at 140 g/ha (APESV bentgrass (Apera spica-venti), 140 g ai/ha, read-out: Visual Growth Reduction (%) 21 Days After Application APESV) was 85 to 94% and the pest or weed control at 35 g/ha [23] was 0 to 29%. The pest or weed control at 70 g/ha [24] was 30 to 44%, the pest or weed control at 140 g/ha (LOLSS ryegrass, 140 g ai/ha, read-out: Visual Growth Reduction (%) 21 Days After Application LOLSS) was 60 to 74% and the pest or weed control at 35 g/ha [25] was 60 to 74%. It also gave a pest or weed control at 70 g/ha [26] of 75 to 84% and a pest or weed control at 140 g/ha (SETVI green foxtail (Setaria viridis), 140 g ai/ha, read-out: Visual Growth Reduction (%) 21 Days After Application SETVI) of 95 to 100%.
`Nc1c(F)c(-c2ccc3c(c2F)OC(F)(F)O3)nc(C(=O)O)c1Cl` [Compound 11] was tested, and the “GR50 ALOMY” value [1] was 41 g ai/ha, the “GR80 ALOMY” value [2] was >70 g ai/ha and the “GR90 ALOMY” value [3] was >70 g ai/ha. The “GR50 APESV” value [4] was 25 g ai/ha, the “GR80 APESV” value [5] was 52 g ai/ha and the “GR90 APESV” value [6] was >70 g ai/ha. For the same compound, the “GR20 HORVS” value [7] was 3 g ai/ha, the pest or weed control at 17.5 g/ha (Hordeum vulgare, HORVS barley, spring (crop), 17.5 g ai/ha, read-out: Visual Growth Reduction (%) 21 Days After Application HORVS) was 60 to 74% and the pest or weed control at 35 g/ha [8] was 60 to 74%. The pest or weed control at 70 g/ha [9] was 85 to 94%, the “GR50 LOLSS” value [10] was 31 g ai/ha and the “GR80 LOLSS” value [11] was 62 g ai/ha. For the same compound, the “GR90 LOLSS” value [12] was >70 g ai/ha, the “Visual Growth Reduction (%) 21 Days After Application MATCH” value (MATCH wild chamomile (Matricaria recutita L.), 17.5 g ai/ha) was “G (0-29)” and the “Visual Growth Reduction (%) 21 Days After Application MATCH” value (MATCH wild chamomile (Matricaria recutita L.), 35 g ai/ha) was “F (30-44)”. The “Visual Growth Reduction (%) 21 Days After Application MATCH” value (MATCH wild chamomile (Matricaria recutita L.), 70 g ai/ha) was “E (45-59)”, the “GR50 MATCH” value (MATCH wild chamomile (Matricaria recutita L.), growth reduction of 50%, probit analysis) was 65 g ai/ha and the “GR80 MATCH” value (MATCH wild chamomile (Matricaria recutita L.), growth reduction of 80%, probit analysis) was >70 g ai/ha. The “GR90 MATCH” value (MATCH wild chamomile (Matricaria recutita L.), growth reduction of 90%, probit analysis) was >70 g ai/ha, the “GR50 SETVI” value [13] was 18 g ai/ha and the “GR80 SETVI” value [14] was 37 g ai/ha. For the same compound, the “GR90 SETVI” value [15] was 53 g ai/ha, the “GR20 TRZAS” value [16] was 0.12 g ai/ha and the pest or weed control at 17.5 g/ha (Triticum aestivum, TRZAS wheat, spring (crop), 17.5 g ai/ha, read-out: Visual Growth Reduction (%) 21 Days After Application TRZAS) was 75 to 84%. For the same compound, the pest or weed control at 35 g/ha [17] was 85 to 94%, the pest or weed control at 70 g/ha [18] was 85 to 94% and the “Visual Growth Reduction (%) 21 Days After Application VERPE” value (VERPE bird's-eye speedwell (veronica persica), 17.5 g ai/ha) was “E (45-59)”. The “Visual Growth Reduction (%) 21 Days After Application VERPE” value (VERPE bird's-eye speedwell (veronica persica), 35 g ai/ha) was “D (60-74)”, the “Visual Growth Reduction (%) 21 Days After Application VERPE” value (VERPE bird's-eye speedwell (veronica persica), 70 g ai/ha) was “B (85-94)” and the “GR50 VERPE” value (VERPE bird's-eye speedwell (veronica persica), growth reduction of 50%, probit analysis) was 17 g ai/ha. The “GR80 VERPE” value (VERPE bird's-eye speedwell (veronica persica), growth reduction of 80%, probit analysis) was 41 g ai/ha, the “GR90 VERPE” value (VERPE bird's-eye speedwell (veronica persica), growth reduction of 90%, probit analysis) was 65 g ai/ha and the pest or weed control at 17.5 g/ha (ALOMY black-grass (Alopecurus myosuroides), 17.5 g ai/ha, read-out: Visual Growth Reduction (%) 21 Days After Application ALOMY) was 30 to 44%. For the same compound, the pest or weed control at 35 g/ha [19] was 45 to 59%, the pest or weed control at 70 g/ha [20] was 60 to 74% and the pest or weed control at 17.5 g/ha (APESV bentgrass (Apera spica-venti), 17.5 g ai/ha, read-out: Visual Growth Reduction (%) 21 Days After Application APESV) was 30 to 44%. It also gave a pest or weed control at 35 g/ha [21] of 60 to 74%, a pest or weed control at 70 g/ha [22] of 85 to 94% and a pest or weed control at 17.5 g/ha (LOLSS ryegrass, 17.5 g ai/ha, read-out: Visual Growth Reduction (%) 21 Days After Application LOLSS) of 45 to 59%. The pest or weed control at 35 g/ha [23] was 60 to 74%, the pest or weed control at 70 g/ha [24] was 75 to 84% and the pest or weed control at 17.5 g/ha (SETVI green foxtail (Setaria viridis), 17.5 g ai/ha, read-out: Visual Growth Reduction (%) 21 Days After Application SETVI) was 45 to 59%. The pest or weed control at 35 g/ha [25] was 75 to 84% and the pest or weed control at 70 g/ha [26] was 85 to 94%.
